Measured values reported in patent US4550186A, “Binuclear copper (II) carboxylates formed from amine-carboxyboranes” (Duke University, priority 1983, dated 1985).

How the values were obtained:
[1] = system: formate incorporation into purine; assay: In vitro formate incorporation into purine (supernatant fraction); assay type: biochemical, mouse; settings: read-out: ID50, formate incorporation into purine
Description: CF1 male mice (~30 g) were implanted with 2×10^6 Ehrlich ascites tumor cells, intraperitoneally on Day 0. Compound I was suspended by homogenation in 0.05% polysorbate.80-water and administered intraperitoneally at 10 and 20 mg/kg for 9 days to determine its effectiveness for inhibition of tumor growth. Mice were sacrificed on Day 10, and the ascites fluid was collected from the peritoneal cavity. The volume and ascrit (packed cell volume) were determined for each animal and the percent inhibition of tumor growth was calculated. For the metabolic studies, mice were treated on Days 8 and 9 with 10 mg/kg of Compound I, intraperitoneally. […]
Carbamyl phosphate synthetase activity was determined using the reaction medium of Kalman et al [Am. […] Citrulline formed from ornithine was measured at 490 nm by the method of Archibald [J. Biol. Chem., 156, 121 (1944)]. […] The ^14 CO2 generated in 15 min was trapped in 1M KOH and counted. Thymidylate synthetase activity was determined using a post-mitochondrial supernatant (9000 g×10 min) and 5 μCi of 5-^3 H-deoxyuridine monophosphate (14 Ci/mmol) according to the method of Kampf et al [ J. Med. Chem., 19, 903 (1976)]. ^14 C-Formate incorporation into purines was determined by the method of Spassova et al [Biochem. Pharmacol., 25, 923 (1976)] using 0.5 μCi of ^14 C-formic acid (52.0 mCi/mmol). […] The Rf value for xanthine monophosphate was scraped and counted. […]

[2] = molecular target: deoxyribonucleic acid polymerase; assay: In vitro deoxyribonucleic acid polymerase activity in isolated nuclei; assay type: biochemical, mouse; settings: isolated nuclei from Ehrlich ascites cells, read-out: ID50, Deoxyribonucleic acid polymerase activity
Description: CF1 male mice (~30 g) were implanted with 2×10^6 Ehrlich ascites tumor cells, intraperitoneally on Day 0. Compound I was suspended by homogenation in 0.05% polysorbate.80-water and administered intraperitoneally at 10 and 20 mg/kg for 9 days to determine its effectiveness for inhibition of tumor growth. Mice were sacrificed on Day 10, and the ascites fluid was collected from the peritoneal cavity. The volume and ascrit (packed cell volume) were determined for each animal and the percent inhibition of tumor growth was calculated. For the metabolic studies, mice were treated on Days 8 and 9 with 10 mg/kg of Compound I, intraperitoneally. The animal was sacrificed on Day 10 and the ascites fluid harvested. The in vitro metabolic studies were performed at […] final concentration of Compound I.
In vitro and in vivo nuclear deoxyribonucleic acid polymerase activity was determined on isolated Ehrlich ascites cell nuclei. The incubation was that described by Sawada et al [Can. Res., 34, 3341 (1974)] except that [methyl-^3 H] deoxythymidine triphosphate (82.4 Ci/mmol) was used. The acid insoluble nucleic acid was collected on GF/F filters and counted. Nuclear ribonucleic acid polymerase activities were determined on enzymes isolated from nuclei. […] The acid insoluble ribonucleic acid was collected on nitrocellulose filters and counted.

{Cu[(CH3)3 N.BH2 CO2 ]2.(CH3)3 N.BH2 COOH} [Compound I]
IC50 [1]: 1710 µM
IC50 [2]: 454 µM
